From US9879036B2, “Mitochondrial aldehyde dehydrogenase-2 binding compounds and methods of use thereof” (Aviv Therapeutics, Inc., priority 2014, dated 2018)
Substitutions are numbered along the chain they refer to.

Key:
Type in all cases: biochemical
[1] = biological target: T1, ALDH2 (Homo sapiens, UniProt P05091); assay: ALDH2 activity with 20 μM of the compound (Table 3); settings: 20 μM compound
T1 construct: His-tag (N); made in house; host or cells: E. coli BL21
T1 sequence (P05091 18-517): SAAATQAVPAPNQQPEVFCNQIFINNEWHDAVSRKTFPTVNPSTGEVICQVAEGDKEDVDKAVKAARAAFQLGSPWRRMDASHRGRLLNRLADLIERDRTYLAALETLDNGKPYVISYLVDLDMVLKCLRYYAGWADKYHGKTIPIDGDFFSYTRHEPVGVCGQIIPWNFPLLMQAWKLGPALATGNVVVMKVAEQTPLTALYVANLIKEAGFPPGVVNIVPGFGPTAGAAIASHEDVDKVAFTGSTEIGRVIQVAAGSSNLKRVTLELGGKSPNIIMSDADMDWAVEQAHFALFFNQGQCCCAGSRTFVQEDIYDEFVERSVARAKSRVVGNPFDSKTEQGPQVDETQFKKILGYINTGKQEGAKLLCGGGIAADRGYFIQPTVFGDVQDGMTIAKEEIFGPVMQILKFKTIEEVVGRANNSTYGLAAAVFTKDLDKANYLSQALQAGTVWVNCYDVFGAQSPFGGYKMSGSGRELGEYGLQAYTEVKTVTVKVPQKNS
Method: (§1) ALDH2 catalyzes the oxidative reaction of substrate acetaldehyde to acetic acid using NAD^+ as a cofactor. Enzymatic activity, or catalytic rate, of aldehyde dehydrogenase (ALDH2) are measured spectrophotometrically at UV wavelength λ340 nm by the accumulation of reduced product NADH derived from NAD^+. Absorbance at λ340 nm is quantitatively proportional to the amount of NADH being produced over time (6.22 O.D. unit=1 mmol of NADH, measured in a 1-cm width standard cuvette). This method is well-established in the literature [e.g. Rex et al., Alcohol Clin. Exp. Res. 9, 147 (1985)].
as §1, with “can be” for “are”
(§2) ALDH2 catalyzes the oxidative reaction of substrate acetaldehyde to acetic acid using NAD^+ as a cofactor. Enzymatic activity, or catalytic rate, of aldehyde dehydrogenase (ALDH2) can be measured spectrophotometrically at UV wavelength λ340 nm by the accumulation of reduced product NADH derived from NAD^+. Because compounds of formula (I) are considered to be agonists or “activators” of ALDH2 the enzymatic activity measured will exceed 100% of the baseline enzymatic activity of the enzyme in its normal activation state. As the concentration of the compounds of formula (I) decreases from 20 micromolar to 0.16 micromolar in the presence of ALDH, a decrease in the activation of enzymatic activity is observed for the wild-type ALDH2*1/*1 and the heterozygous form ALDH2*1/*2.

[2] = biological target: T2, ALDH2*1/*2 (Homo sapiens, UniProt P05091, E504K); assay: ALDH2 enzymatic activity, NADH accumulation at 340 nm, acetaldehyde substrate, heterozygous form; settings: relative to baseline enzymatic activity (100%); for activity at 2.5 µM: 2.5 μM compound; for activity at 5 µM: 5 μM compound; for activity at 10 µM: 10 μM compound; for activity at 20 µM: 20 μM compound
T2 construct: His-tag; made in house; host or cells: E. coli BL21 (pETDuet-1 co-expression)
T2 sequence (P05091 18-517): T1 sequence (P05091 18-517)
T2 sequence (P05091 18-517 E504K): T1 sequence (P05091 18-517) with E487K
Method: as §1
as §1, with “can be” for “are”
(§3) Cloning, expression and purification of human ALDH2 wild type and ALDH2*2 recombinant mutant enzymes: Full-length wild type human ALDH2 cDNA was purchased from ATCC (No. MGC-1806. GenBank ID: BC002967). The 18-amino acid mitochondria transport signal sequence was removed by PCR and cloned into the NheI/HindIII sites of a His-tag vector, pTrcHis, using standard molecular cloning techniques. The human ALDH2* cDNA construct containing the Asian E487K mutation was obtained by site-directed mutagenesis to create the E487K substitution of the wild type ALDH2. Both human clones were designed to express a recombinant protein with the His-tag at the N-terminus of the protein. For the co-expression experiments of human ALDH2 wild type and ALDH2*2 heterotetramers, a wild type ALDH2 gene and a ALDH2 E487K gene were inserted separately into the two multiple cloning sites of pETDuet-1 vector. (Novagen, CA, USA). All the vectors were transformed into BL21 E. coli host cells and subjected to 0.5 mM IPTG induction for protein expression at 30° C. Purifications of the recombinant proteins by affinity nickel columns (HisTrap, GE Healthy Science, USA) were carried out using standard protocols according to manufacturer's instructions (Novagen, USA).
as §2

[3] = biological target: T3, ALDH2*1/*1 (Homo sapiens, UniProt P05091); assay: ALDH2 enzymatic activity, NADH accumulation at 340 nm, acetaldehyde substrate, wild type; settings: relative to baseline enzymatic activity (100%); for activity at 2.5 µM: 2.5 μM compound; for activity at 5 µM: 5 μM compound; for activity at 10 µM: 10 μM compound; for activity at 20 µM: 20 μM compound
T3 construct: His-tag (N); made in house; host or cells: E. coli BL21 (pTrcHis vector)
T3 sequence (P05091 18-517): T1 sequence (P05091 18-517)
Method: as §1
as §1, with “can be” for “are”
as §3, §2

Compound: COc1ccc(CNC(=O)c2cc(-c3ccccc3CO)cnc2OCC2CC2)cc1F [AC1, 2-(cyclopropylmethoxy)-N-(3-fluoro-4-methoxybenzyl)-5-(2-(hydroxymethyl)phenyl)nicotinamide]
- activity at 20 µM [1]: > 250%
- activity at 2.5 µM [2]: 220%
- activity at 5 µM [2]: 294%
- activity at 10 µM [2]: 383%
- activity at 20 µM [2]: 453%
- activity at 2.5 µM [3]: 175%
- activity at 5 µM [3]: 242%
- activity at 10 µM [3]: 288%
- activity at 20 µM [3]: 412%

Compound: COc1ccc(CNC(=O)c2cc(-c3ccccc3CO)ccc2OCC2CC2)cc1F [AC2, 4-(cyclopropylmethoxy)-N-(3-fluoro-4-methoxybenzyl)-2′-(hydroxymethyl)-[1,1′-biphenyl]-3-carboxamide]
- activity at 20 µM [1]: > 250%
- activity at 2.5 µM [2]: 256%
- activity at 5 µM [2]: 338%
- activity at 10 µM [2]: 408%
- activity at 20 µM [2]: 471%
- activity at 2.5 µM [3]: 215%
- activity at 5 µM [3]: 275%
- activity at 10 µM [3]: 328%
- activity at 20 µM [3]: 443%

Compound: COc1ccc(CNC(=O)c2cc(-c3ccccc3CO)ncc2OCC2CC2)cc1F [AC3]
- activity at 20 µM [1]: 150 to 250%
- activity at 2.5 µM [2]: 180%
- activity at 5 µM [2]: 245%
- activity at 10 µM [2]: 310%
- activity at 20 µM [2]: 376%
- activity at 2.5 µM [3]: 150%
- activity at 5 µM [3]: 195%
- activity at 10 µM [3]: 220%
- activity at 20 µM [3]: 319%

Compound: COc1ccc(CNC(=O)c2cc(-c3ccc(F)cc3CO)cnc2OCC2CC2)cc1F [AC4]
- activity at 20 µM [1]: > 250%
- activity at 2.5 µM [2]: 266%
- activity at 5 µM [2]: 338%
- activity at 10 µM [2]: 390%
- activity at 20 µM [2]: 423%
- activity at 2.5 µM [3]: 204%
- activity at 5 µM [3]: 280%
- activity at 10 µM [3]: 300%
- activity at 20 µM [3]: 363%

Compound: COc1ccc(CNC(=O)c2cc(-c3cnccc3CO)ccc2OCC2CC2)cc1F [AC5]
- activity at 20 µM [1]: > 250%
- activity at 2.5 µM [2]: 318%
- activity at 5 µM [2]: 382%
- activity at 10 µM [2]: 428%
- activity at 20 µM [2]: 504%
- activity at 2.5 µM [3]: 266%
- activity at 5 µM [3]: 330%
- activity at 10 µM [3]: 352%
- activity at 20 µM [3]: 487%

Compound: COc1ccc(CNC(=O)c2cc(-c3cccnc3CO)ccc2OCC2CC2)cc1F [AC7]
- activity at 20 µM [1]: > 250%
- activity at 2.5 µM [2]: 176%
- activity at 5 µM [2]: 244%
- activity at 10 µM [2]: 291%
- activity at 20 µM [2]: 434%
- activity at 2.5 µM [3]: 133%
- activity at 5 µM [3]: 181%
- activity at 10 µM [3]: 266%
- activity at 20 µM [3]: 331%

Compound: COc1ccc(CNC(=O)c2cc(-c3ncccc3CO)cnc2OCC2CC2)cc1F [AC8]
- activity at 20 µM [1]: > 250%
- activity at 2.5 µM [2]: 221%
- activity at 5 µM [2]: 299%
- activity at 10 µM [2]: 328%
- activity at 20 µM [2]: 479%
- activity at 2.5 µM [3]: 164%
- activity at 5 µM [3]: 223%
- activity at 10 µM [3]: 319%
- activity at 20 µM [3]: 370%

Compound: COc1ccc(CNC(=O)c2cc(-c3ccncc3CO)ccc2OCC2CC2)cc1F [AC9]
- activity at 20 µM [1]: > 250%
- activity at 2.5 µM [2]: 224%
- activity at 5 µM [2]: 287%
- activity at 10 µM [2]: 317%
- activity at 20 µM [2]: 402%
- activity at 2.5 µM [3]: 218%
- activity at 5 µM [3]: 276%
- activity at 10 µM [3]: 354%
- activity at 20 µM [3]: 376%

Compound: COc1ccc(CNC(=O)c2cc(-c3cnccc3CO)cnc2OCC2CC2)cc1F [AC10]
- activity at 20 µM [1]: > 250%
- activity at 2.5 µM [2]: 239%
- activity at 5 µM [2]: 321%
- activity at 10 µM [2]: 388%
- activity at 20 µM [2]: 531%
- activity at 2.5 µM [3]: 172%
- activity at 5 µM [3]: 238%
- activity at 10 µM [3]: 346%
- activity at 20 µM [3]: 414%

Compound: COc1ccc(CNC(=O)c2cc(-c3cccnc3CO)cnc2OCC2CC2)cc1F [AC11]
- activity at 20 µM [1]: 150 to 250%
- activity at 2.5 µM [2]: 125%
- activity at 5 µM [2]: 158%
- activity at 10 µM [2]: 185%
- activity at 20 µM [2]: 248%
- activity at 2.5 µM [3]: 123%
- activity at 5 µM [3]: 135%
- activity at 10 µM [3]: 169%
- activity at 20 µM [3]: 211%

Compound: COc1ccc(CNC(=O)c2cc(-c3ccncc3CO)cnc2OCC2CC2)cc1F [AC12]
- activity at 20 µM [1]: > 250%
- activity at 2.5 µM [2]: 179%
- activity at 5 µM [2]: 236%
- activity at 10 µM [2]: 286%
- activity at 20 µM [2]: 350%
- activity at 2.5 µM [3]: 166%
- activity at 5 µM [3]: 211%
- activity at 10 µM [3]: 305%
- activity at 20 µM [3]: 379%

Compound: COc1ccc(CNC(=O)c2cc(-c3c[n+]([O-])ccc3CO)ccc2OCC2CC2)cc1F [AC13]
- activity at 20 µM [1]: 150 to 250%
- activity at 2.5 µM [2]: 146%
- activity at 5 µM [2]: 195%
- activity at 10 µM [2]: 247%
- activity at 20 µM [2]: 296%
- activity at 2.5 µM [3]: 164%
- activity at 5 µM [3]: 168%
- activity at 10 µM [3]: 215%
- activity at 20 µM [3]: 237%

Compound: COc1ccc(CNC(=O)c2cc(-c3c(CO)ccc[n+]3[O-])ccc2OCC2CC2)cc1F [AC14, 2-(4-(cyclopropylmethoxy)-3-((3-fluoro-4-methoxybenzyl)carbamoyl)phenyl)-3-(hydroxymethyl)pyridine 1-oxide]
- activity at 20 µM [1]: 150 to 250%
- activity at 2.5 µM [2]: 103%
- activity at 5 µM [2]: 121%
- activity at 10 µM [2]: 157%
- activity at 20 µM [2]: 194%
- activity at 2.5 µM [3]: 134%
- activity at 5 µM [3]: 138%
- activity at 10 µM [3]: 162%
- activity at 20 µM [3]: 189%

Compound: [2H]C([2H])([2H])Oc1ccc(CNC(=O)c2cc(-c3ncccc3CO)ccc2OC([2H])([2H])C2CC2)cc1F [AC159]
- activity at 20 µM [1]: > 250%

Compound: COc1ccc(CNC(=O)c2cc(-c3ncccc3CO)ccc2OCC2CCCCC2)cc1F [AC163]
- activity at 20 µM [1]: 150 to 250%

Compound: COc1ccc(CNC(=O)c2cc(-c3ncccc3CO)ccc2OC2CCCCCC2)cc1F [AC164]
- activity at 20 µM [1]: > 250%

Compound: COc1ccc(CNC(=O)c2cc(-c3ncccc3CO)ccc2OC2CCCCCCC2)cc1F [AC165]
- activity at 20 µM [1]: 150 to 250%

Compound: COc1ccc(CNC(=O)c2cc(-c3ncccc3CO)ccc2OCC2CCCC2)cc1F [AC166]
- activity at 20 µM [1]: > 250%
